Test results published in paper PMC5411959, “Potential Antiosteoporotic Natural Product Lead Compounds That Inhibit 17β-Hydroxysteroid Dehydrogenase Type 2” (Journal of Natural Products, 2017).
Where “and” joins values, the source holds several entries; their conditions need not be identical. Equal entries are not always repeated. Where two headings read alike, the source gives them in different places.

Legend:
human 17β-HSD1 = target: T1, human 17β-HSD1 (Homo sapiens, UniProt P14061); experiment: 17β-HSD1 activity assay using lysates of HEK-293 cells expressing the recombinant human enzyme; type: biochemical; details: for 17β-HSD1 inhibition (in words; n.i. = no inhibition): screened at 20 μM; for selectivity factor: 17β-HSD1 versus 17β-HSD2; for IC50: HEK-293 lysates, 200 nM estrone, 500 μM NADPH
T1 construct: expressed in transfected cells; host or cells: HEK-293 (ATCC), used as cell lysate
T1 sequence (P14061 1-328): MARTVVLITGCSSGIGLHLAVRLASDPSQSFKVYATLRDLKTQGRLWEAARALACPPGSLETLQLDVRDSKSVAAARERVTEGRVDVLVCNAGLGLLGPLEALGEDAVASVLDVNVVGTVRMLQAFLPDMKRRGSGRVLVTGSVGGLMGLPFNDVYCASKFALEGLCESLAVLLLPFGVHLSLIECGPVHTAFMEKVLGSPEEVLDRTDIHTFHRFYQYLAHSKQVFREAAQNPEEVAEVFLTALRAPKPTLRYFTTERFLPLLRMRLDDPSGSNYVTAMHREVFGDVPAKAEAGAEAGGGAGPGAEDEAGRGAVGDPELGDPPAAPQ

human 17β-HSD2 = target: T2, human 17β-HSD2 (Homo sapiens, UniProt P37059); experiment: 17β-HSD2 activity assay using lysates of HEK-293 cells expressing the recombinant human enzyme; type: biochemical; details: for IC50: HEK-293 lysates, 200 nM estradiol, 500 μM NAD+, 10 min 37 °C; for remaining activity at 20 µM: read-out: 17β-HSD2 remaining activity at 20 μM (% of control); for 17β-HSD2 inhibition (in words): tested at 20 μM;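 on all read-outs here: conversion of tritium-labelled estradiol (200 nM, with 500 µM NAD+, 10 min) quantified after TLC separation by scintillation counting, at least three independent measurements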
T2 construct: expressed in transfected cells; host or cells: HEK-293 (ATCC), used as cell lysate
T2 sequence (P37059 1-387): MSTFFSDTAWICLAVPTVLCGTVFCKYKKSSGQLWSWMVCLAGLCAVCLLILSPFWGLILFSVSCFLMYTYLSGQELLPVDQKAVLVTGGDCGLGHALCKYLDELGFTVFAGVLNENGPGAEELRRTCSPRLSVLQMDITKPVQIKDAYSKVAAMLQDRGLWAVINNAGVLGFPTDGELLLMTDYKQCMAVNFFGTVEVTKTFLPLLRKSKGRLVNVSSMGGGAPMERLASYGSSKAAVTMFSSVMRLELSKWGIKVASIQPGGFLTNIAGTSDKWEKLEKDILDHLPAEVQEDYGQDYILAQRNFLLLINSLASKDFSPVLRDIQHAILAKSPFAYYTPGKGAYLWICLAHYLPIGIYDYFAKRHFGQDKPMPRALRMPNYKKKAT

17β-HSD2 = tested on: 17β-HSD2; set-up: method as in PMID 18533708; details: cited from earlier work; for activity: 40 μM, read-out: inhibition of 17β-HSD2: % residual activity at 40 μM; for activity / IC50: mean ± SD; for classification (17β-HSD2 inhibition): flavonoid SAR model, Table 4; for IC50: read-out: inhibition of 17β-HSD2: IC50 (μM)
[1] = 20 μM compound, % of vehicle control

O=C(Cc1ccc(O)c(Cl)c1)NCc1ccccc1 [compound 16, N-benzyl-2-(3-chloro-4-hydroxyphenyl)acetamide]
17β-HSD1 inhibition (in words; n.i. = no inhibition) (human 17β-HSD1): n.i.
IC50 (human 17β-HSD2): 3.42 ± 0.74 µM

CCOC(=O)c1ccc(O)c(OC)c1 [compound 12, ethyl vanillate]
17β-HSD1 inhibition (in words; n.i. = no inhibition) (human 17β-HSD1): n.i.
IC50 (human 17β-HSD2): 1.28 ± 0.26 µM

O=C(Cc1ccc(O)c(Cl)c1)NCc1ccccc1Cl [compound 18, 2-(3-chloro-4-hydroxyphenyl)-N-(2-chlorobenzyl)acetamide]
remaining activity at 20 µM (human 17β-HSD1; 20 μM compound, read-out: 17β-HSD1 remaining activity at 20 μM): 54.8 ± 5.8%
selectivity factor (human 17β-HSD1): ∼25
IC50 (human 17β-HSD2): 0.78 ± 0.16 µM

CC1(C)CC[C@]2(C(=O)O)CC[C@]3(C)C(=CC[C@@H]4[C@@]5(C)CC[C@H](O)C(C)(C)[C@@H]5CC[C@]43C)[C@@H]2C1 [compound 2, oleanolic acid]
remaining activity at 20 µM (human 17β-HSD2): 49 ± 6%

O=C(/C=C/c1ccc(O)cc1)c1ccc(O)cc1O [compound 6, isoliquiritigenin]
IC50 (human 17β-HSD2): 0.36 ± 0.08 µM

O=C1CC(c2ccccc2)Oc2ccc(O)cc21 (stereo not shown) [compound 22, 6-hydroxyflavanone]
activity (17β-HSD2): 42.5 ± 1.8%
classification (17β-HSD2 inhibition) (17β-HSD2): inactive^24

CCN(CC)CCCC(C)Nc1ccnc2cc(Cl)ccc12 (racemic) [S17, (±)-chloroquine, reference compound]
17β-HSD2 remaining activity at 20 μM (% of control) (human 17β-HSD2; [1]): 111 ± 13%

O=c1cc(-c2ccc(O)cc2)oc2cc(O)cc(O)c12 [compound 29, apigenin]
activity (17β-HSD2): 25.2 ± 0.9%
classification (17β-HSD2 inhibition) (17β-HSD2): weak^24
IC50 (17β-HSD2): > 20 µM

O=C1CC(c2ccccc2O)Oc2ccccc21 (stereo not shown) [compound 20, 2´-hydroxyflavanone]
activity (17β-HSD2): 50.7 ± 0.5%
classification (17β-HSD2 inhibition) (17β-HSD2): inactive^24

O=C1C[C@@H](c2ccc(O)cc2)Oc2cc(O)cc(O)c21 [compound 23, naringenin]
classification (17β-HSD2 inhibition) (17β-HSD2): active^24
IC50 (17β-HSD2): 14.4 ± 4.5 µM

O=C1CC(c2ccc(O)cc2)Oc2ccccc21 (stereo not shown) [compound 21, 4´-hydroxyflavanone]
activity (17β-HSD2): 63.6 ± 3.5%
classification (17β-HSD2 inhibition) (17β-HSD2): inactive^24

NC(=O)Cc1ccc(O)c(Cl)c1 [S11, 2-(3-chloro-4-hydroxyphenyl)acetamide]
remaining activity at 20 µM (human 17β-HSD2; [1]): 80 ± 10%
17β-HSD2 inhibition (in words) (human 17β-HSD2): did not inhibit

O=C1CC(c2ccccc2)Oc2ccccc21 (stereo not shown) [compound 19, flavanone]
activity (17β-HSD2): 70.7 ± 2.6%
classification (17β-HSD2 inhibition) (17β-HSD2): inactive^24

COc1cc(C)cc2oc3ccc(O)c(C(=O)O)c3c(=O)c12 [S10, 2-hydroxy-8-methoxy-6-methyl-9-oxo-9H-xanthene-1-carboxylic acid]
17β-HSD2 remaining activity at 20 μM (% of control) (human 17β-HSD2; [1]): 64 ± 5%

CC(Cc1ccc(O)c(O)c1)C(C)Cc1ccc(O)c(O)c1 (stereo not shown) [compound 1, nordihydroguaiaretic acid]
times more active toward 17β-HSD2 than 17β-HSD1 (human 17β-HSD1): 15 times
selectivity factor (human 17β-HSD1): 15
selectivity over 17β-HSD1 (human 17β-HSD1; 17β-HSD2 over 17β-HSD1): ≥ 8 fold
IC50 (human 17β-HSD1): 5.5 ± 1.3 µM
IC50 (human 17β-HSD2): 0.38 ± 0.04 µM

O=c1cc(-c2ccccc2)oc2cc(O)ccc12 [compound 26, 7-hydroxyflavone]
activity (17β-HSD2): 23.1 ± 1.1%
classification (17β-HSD2 inhibition) (17β-HSD2): weak^24
IC50 (17β-HSD2): > 20 µM

COc1cc(CCC(C)=O)ccc1O [S2, vanillyl acetone]
17β-HSD2 remaining activity at 20 μM (% of control) (human 17β-HSD2; [1]): 106 ± 9%

O=c1cc(-c2ccccc2)oc2ccccc12 [compound 25, flavone]
activity (17β-HSD2): 63.9 ± 0.6%
classification (17β-HSD2 inhibition) (17β-HSD2): inactive^24

O=C(O)Cc1ccc(O)c(Cl)c1 [S12, 2-(3-chloro-4-hydroxyphenyl)acetic acid]
remaining activity at 20 µM (human 17β-HSD2): 88 ± 7%

COc1cc(/C=C2\N=C(N)NC2=O)ccc1O [S14, polyandrocarpamine A]
remaining activity at 20 µM (human 17β-HSD2; [1]): 101 ± 7%

O=c1c(-c2ccc(O)cc2)coc2cc(O)ccc12 [compound 28, daidzein]
activity (17β-HSD2): 58.3 ± 6.1%
classification (17β-HSD2 inhibition) (17β-HSD2): inactive^24

O=C(/C=C/c1ccc(O)c(O)c1)c1ccc(O)cc1O [compound 10, butein]
IC50 (human 17β-HSD2): 7.3 ± 2.7 µM
fold less active than 6 (17β-HSD2 IC50) (human 17β-HSD2; compared with compound 6): 20 fold

COc1cc([C@H]2OC[C@H]3[C@@H]2CO[C@@H]3c2ccc(O)c(OC)c2)ccc1O [compound 7, pinoresinol]
remaining activity at 20 µM (human 17β-HSD2): 42 ± 5%

O=c1c2c(O)cc(O)cc2oc2oc3cc(O)ccc3c12 [compound 8, lupinalbin A]
IC50 (human 17β-HSD1): 0.049 ± 0.019 µM

COc1ccc([C@@H]2CC(=O)c3c(O)cc(O)cc3O2)cc1O [compound 24, hesperetin]
activity (17β-HSD2): 36.4 ± 1.7%
classification (17β-HSD2 inhibition) (17β-HSD2): inactive^24

O=c1c(O)c(-c2ccc(O)c(O)c2)oc2cc(O)cc(O)c12 [compound 31, quercetin]
classification (17β-HSD2 inhibition) (17β-HSD2): active^24
IC50 (17β-HSD2): 1.54 ± 0.22 µM

O=C(/C=C/c1ccc(O)c(O)c1)O[C@@H]1C[C@](O)(C(=O)O)C[C@@H](O)[C@H]1O [S8, chlorogenic acid]
remaining activity at 20 µM (human 17β-HSD2; [1]): 97 ± 10%

COc1ccc(-c2coc3cc(O)cc(O)c3c2=O)cc1 [compound 33, biochanin A]
classification (17β-HSD2 inhibition) (17β-HSD2): active^24
IC50 (17β-HSD2): 9.9 ± 1.87 µM

O=c1c(O)c(-c2ccc(O)cc2)oc2cc(O)cc(O)c12 [compound 30, kaempferol]
classification (17β-HSD2 inhibition) (17β-HSD2): active^24
IC50 (17β-HSD2): 0.36 ± 0.04 µM

CCCCNC(=O)Cc1ccc(O)c(Cl)c1 [compound 15, N-butyl-2-(3-chloro-4-hydroxyphenyl)acetamide]
remaining activity at 20 µM (human 17β-HSD2; [1]): 33 ± 6%
17β-HSD2 inhibition (in words) (human 17β-HSD2): moderately active

CCCCOC(=O)c1cc(O)c(O)c(O)c1 [S3, butyl gallate]
remaining activity at 20 µM (human 17β-HSD2; [1]): 56 ± 5%

NC(=O)Cc1ccc(O)cc1 [S16, 2-(4-hydroxyphenyl)acetamide]
remaining activity at 20 µM (human 17β-HSD2; [1]): 110 ± 10%
17β-HSD2 inhibition (in words) (human 17β-HSD2): did not inhibit

O=C(O)Cc1ccc(O)cc1 [S15, 2-(4-hydroxyphenyl)acetic acid]
remaining activity at 20 µM (human 17β-HSD2; [1]): 108 ± 5%
17β-HSD2 inhibition (in words) (human 17β-HSD2): did not inhibit

COc1cc(/C=C/C(=O)O)ccc1O [S5, ferulic acid]
17β-HSD2 remaining activity at 20 μM (% of control) (human 17β-HSD2; [1]): 79 ± 10%

O=C(O)/C=C/c1ccc(O)c(O)c1 [S9, caffeic acid]
remaining activity at 20 µM (human 17β-HSD2; [1]): 58 ± 13%

C=CCc1ccc(O)c(OC)c1 [S4, eugenol]
remaining activity at 20 µM (human 17β-HSD2): 94 ± 11%

O=c1c(-c2ccc(O)cc2)coc2cc(O)cc(O)c12 [compound 32, genistein]
classification (17β-HSD2 inhibition) (17β-HSD2): active^24

COC(=O)c1cc2c(c(O)c1OC)[C@H](C)C[C@@H](O)[C@H]2[C@@H](C)CCC=C(C)C [S18, methyl (5R,7R,8S)-4,7-dihydroxy-3-methoxy-5-methyl-8-((S)-6-methylhept-5-en-2-yl)-5,6,7,8-tetrahydronaphthalene-2-carboxylate]
17β-HSD2 remaining activity at 20 μM (% of control) (human 17β-HSD2; [1]): 59 ± 7%

COc1cc(-c2cc(=O)c3c(O)c(OC)c(O)cc3o2)ccc1O [compound 5, jaceosidin]
IC50 (human 17β-HSD2): 9.3 µM and 9.27 µM
classification (17β-HSD2 inhibition) (human 17β-HSD2; flavonoid SAR model, Table 4): active

COc1cc(CNC(=O)CCCC/C=C/C(C)C)ccc1O [S6, capsaicin]
remaining activity at 20 µM (human 17β-HSD2): 53 ± 6%

CCOC(=O)c1cc(O)c(O)c(O)c1 [S1, ethyl gallate]
remaining activity at 20 µM (human 17β-HSD2; [1]): 60 ± 6%

pestalactam A [S13]
17β-HSD2 remaining activity at 20 μM (% of control) (human 17β-HSD2; [1]): 85 ± 11%

O=c1cc(-c2ccccc2)oc2cc(O)cc(O)c12 [compound 27, chrysin]
activity (17β-HSD2): 32.8 ± 5.1%
classification (17β-HSD2 inhibition) (17β-HSD2): inactive^24

NC(=O)c1cccnc1 [S7, nicotinamide]
remaining activity at 20 µM (human 17β-HSD2; [1]): 106 ± 12%

COCCNC(=O)Cc1ccc(O)c(Cl)c1 [compound 14, 2-(3-chloro-4-hydroxyphenyl)-N-(2-methoxyethyl)acetamide]
remaining activity at 20 µM (human 17β-HSD2; [1]): 37 ± 3%
17β-HSD2 inhibition (in words) (human 17β-HSD2): moderately active
